Results on three molecules are retold here after publication PMC8456368 (Bioorganic & medicinal chemistry, 2021).

Assay [1] has as its target T1, GST-MKK3 and full-length VF-MYC interaction (Homo sapiens, UniProt P46734).
T1 sequence (P46734 1-347): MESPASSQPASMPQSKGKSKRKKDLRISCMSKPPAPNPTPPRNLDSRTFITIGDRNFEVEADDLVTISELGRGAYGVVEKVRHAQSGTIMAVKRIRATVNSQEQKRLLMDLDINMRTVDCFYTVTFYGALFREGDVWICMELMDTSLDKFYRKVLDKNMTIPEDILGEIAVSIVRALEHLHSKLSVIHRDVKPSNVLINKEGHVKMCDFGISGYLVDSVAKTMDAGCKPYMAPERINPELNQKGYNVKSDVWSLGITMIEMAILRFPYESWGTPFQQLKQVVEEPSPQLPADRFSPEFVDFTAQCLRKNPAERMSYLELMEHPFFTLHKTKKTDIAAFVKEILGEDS
As to the kind of experiment: dose-response cell lysate-based TR-FRET assay. In kind it is binding. To be noted: for inhibition of MKK3-MYC PPI in dose-response TR-FRET: up to 100 µM compound. For orientation: TR-FRET usually uses a lanthanide donor and a delayed reading to cut background.

Assay [2] deals with MYC, CDK4 and PD-L1 level in HCT116 cells. As to the kind of experiment: Western blot of MYC and MYC-target genes. The class given is cell-based. To be noted: RG108 up to 10 µM.
For assay [3], the system named is MYC transcriptional activity in HCT116 cells. The assay is described as follows: luciferase-based MYC reporter assay. In kind it is cell-based. Particulars: HCT116 cells expressing VF-MKK3; 0.5 to 5 µM, 12 hours.
Assay [4] deals with T2, MKK3-MYC PPI (Homo sapiens, UniProt P46734).
T2 sequence (P46734 1-347): T1 sequence (P46734 1-347)
The assay is described as follows: GST pull-down PPI inhibition assay, compound-treated HEK293T lysates. The class given is binding. To be noted: lysates treated with 50 µM.

For assay [5], the target named is T3, MKK3-p38 PPI (Homo sapiens, UniProt P46734).
T3 sequence (P46734 1-347): T1 sequence (P46734 1-347)
The assay is described as above. The class given is binding. Particulars: up to 50 µM.

For assay [6], the target named is MYC-MAX PPI (Homo sapiens, UniProt P01106). The assay is described as above. The class given is binding. To be noted: up to 50 µM.
Chain of MYC-MAX PPI (P01106 16-454): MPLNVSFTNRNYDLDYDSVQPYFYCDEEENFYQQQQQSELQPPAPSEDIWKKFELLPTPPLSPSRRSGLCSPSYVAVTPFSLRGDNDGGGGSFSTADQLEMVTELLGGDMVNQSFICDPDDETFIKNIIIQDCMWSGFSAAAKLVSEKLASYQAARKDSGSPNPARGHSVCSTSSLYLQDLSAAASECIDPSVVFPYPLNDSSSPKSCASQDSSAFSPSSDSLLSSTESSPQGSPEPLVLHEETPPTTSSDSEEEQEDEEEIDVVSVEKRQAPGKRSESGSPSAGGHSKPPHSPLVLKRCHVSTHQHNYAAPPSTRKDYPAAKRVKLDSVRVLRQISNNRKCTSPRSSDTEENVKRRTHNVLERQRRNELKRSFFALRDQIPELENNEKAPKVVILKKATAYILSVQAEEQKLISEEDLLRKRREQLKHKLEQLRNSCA
The target in assay [7] is T4, GST-MKK3 association with endogenous MYC in HCT116 cells (Homo sapiens, UniProt P46734).
T4 sequence (P46734 1-347): T1 sequence (P46734 1-347)
As to the kind of experiment: GST pull-down from compound-treated cells. Particulars: HCT116 cells treated with increased concentration. In kind it is cell-based.

Assay [8] has as its system phosphorylation of MKK3 substrate p38 in HEK293T cells. As to the kind of experiment: p38 phosphorylation in compound-treated cells. The class given is cell-based. Particulars: HEK293T cells incubated with compound.
The test system of assay [9] is MYC level in MDA-MB-468 cells. The assay is described as follows: Western blot of MYC level. The class given is cell-based. To be noted: increasing concentration. In general terms: In western blotting, separated proteins are transferred to a membrane and probed.
Assay [10] has as its system MYC transcriptional activity in MDA-MB-468 cells. As to the kind of experiment: luciferase-based MYC reporter assay. The class given is cell-based. To be noted: MDA-MB-468 cells expressing VF-MKK3; 0.5 to 5 µM, 12 hours.
Assay [11] has as its system Renilla luciferase. The assay is described as follows: luciferase interference control. The class given is cell-based. To be noted: cells treated with 10 µM, vs DMSO control.

Regarding `O=C(O)[C@H](Cc1c[nH]c2ccccc12)N1C(=O)c2ccccc2C1=O` [RG108], the “inhibition of MKK3-MYC PPI in dose-response TR-FRET” value in assay [1] was “does not interfere”. In addition, the “level of MYC and MYC-target genes (CDK4, PD-L1)” value in [2] was “did not suppress”. Besides, the “MKK3-induced MYC transcriptional activity, reporter assay” value in assay [3] is reported as “not suppressed”.
A word on the IC50: it is the concentration that gives 50% inhibition. A lower IC50 goes with inhibition by little substance. Turning to `Cc1cc(Nc2ccc(NC(=O)c3ccc(Nc4ccnc5ccccc45)cc3)cc2)nc(N)n1` [SGI-1027, N-[4-[(2-Amino-6-methylpyrimidin-4-yl)amino]phenyl]-4-(quinolin-4-ylamino)benzamide], the IC50 in assay [1] turned out to be 8 µM. Besides, the “inhibition of MKK3-MYC PPI in GST pull-down” value in assay [4] is “confirmed the inhibition”. Also, the “suppression of MKK3-p38 PPI in GST pull-down” value in assay [5] was “did not observe a significant suppression”. The “suppression of MYC-MAX PPI in GST pull-down” value in assay [6] is listed as “did not observe a significant suppression”. Besides, in [7], the “association of GST-MKK3 with endogenous MYC” value is “decreased association”. In assay [8], the “phosphorylation of MKK3 substrate p38” value is given as “did not decrease”. The “level of MYC and MYC-target genes (CDK4, PD-L1)” value in assay [2] was “substantial decrease”. The MYC level result in [9] is “decreased proportionally”. Further, the “MKK3-induced MYC transcriptional activity, reporter assay” value in [3] and in assay [10] was “diminished” each time. For the same molecule, the Renilla luciferase activity entry in assay [11] is “did not observe a decrease”.
As for `Cc1cc2c(C(C)C)c(O)c(O)c(C=O)c2c(O)c1-c1c(C)cc2c(C(C)C)c(O)c(O)c(C=O)c2c1O` [AT101, (−)-1,1’,6,6’,7,7’-Hexahydroxy-3,3’-dimethyl-5,5’-bis(1-methylethyl)-[2,2’-binaphthalene]-8,8’dicarboxaldehyde], the “inhibition of MKK3-MYC PPI in dose-response TR-FRET” value in assay [1] is reported as “did not demonstrate detectable inhibition”.
